Results: ChEMBL document CHEMBL3865816, “Design, synthesis and biological evaluation of novel azaspiro analogs of linezolid as antibacterial and antitubercular agents” (Eur J Med Chem, 2016)
In brackets after ≈: the same amount, converted by molar mass.

What was measured:
Format in all cases: functional
[1] = tested on: Escherichia coli; experiment: Antibacterial activity against Escherichia coli NCIM 2688 measured after 8 hrs by spectrophotometric method; details: NCIM 2688, 8 h
[2] = tested on: Mycobacterium tuberculosis; experiment: Antitubercular activity against active stage Mycobacterium tuberculosis H37Ra measured after 8 days by XTT assay; details: 192 h
[3] = tested on: Bacillus subtilis; experiment: Antibacterial activity against Bacillus subtilis NCIM 2010 at 3 ug/ml measured after 12 hrs by spectrophotometric method; details: NCIM 2010, 12 h
[4] = tested on: Escherichia coli; experiment: Antibacterial activity against Escherichia coli NCIM 2688 at 3 ug/ml measured after 8 hrs by spectrophotometric method; details: NCIM 2688, 8 h
[5] = tested on: Pseudomonas aeruginosa; experiment: Antibacterial activity against Pseudomonas aeruginosa NCIM 2036 at 10 ug/ml measured after 8 hrs by spectrophotometric method; details: NCIM 2036, 8 h
[6] = tested on: Bacillus subtilis; experiment: Antibacterial activity against Bacillus subtilis NCIM 2010 measured after 12 hrs by spectrophotometric method; details: NCIM 2010, 12 h
[7] = tested on: Pseudomonas aeruginosa; experiment: Antibacterial activity against Pseudomonas aeruginosa NCIM 2036 at 3 ug/ml measured after 8 hrs by spectrophotometric method; details: NCIM 2036, 8 h
[8] = tested on: Staphylococcus aureus; experiment: Antibacterial activity against Staphylococcus aureus NCIM 2079 measured after 12 hrs by spectrophotometric method; details: NCIM 2079, 12 h
[9] = tested on: Staphylococcus aureus; experiment: Antibacterial activity against Staphylococcus aureus NCIM 2079 at 30 ug/ml measured after 12 hrs by spectrophotometric method; details: NCIM 2079, 12 h
[10] = tested on: Pseudomonas aeruginosa; experiment: Antibacterial activity against Pseudomonas aeruginosa NCIM 2036 at 30 ug/ml measured after 8 hrs by spectrophotometric method; details: NCIM 2036, 8 h
[11] = tested on: Bacillus subtilis; experiment: Antibacterial activity against Bacillus subtilis NCIM 2010 at 10 ug/ml measured after 12 hrs by spectrophotometric method; details: NCIM 2010, 12 h
[12] = tested on: Mycobacterium tuberculosis; experiment: Antitubercular activity against dormant stage Mycobacterium tuberculosis H37Ra at 10 ug/ml measured after 12 days by XTT assay; details: 288 h
[13] = tested on: Mycobacterium tuberculosis; experiment: Antitubercular activity against dormant stage Mycobacterium tuberculosis H37Ra at 3 ug/ml measured after 12 days by XTT assay; details: 288 h
[14] = tested on: Staphylococcus aureus; experiment: Antibacterial activity against Staphylococcus aureus NCIM 2079 at 3 ug/ml measured after 12 hrs by spectrophotometric method; details: NCIM 2079, 12 h
[15] = tested on: Mycobacterium tuberculosis; experiment: Antitubercular activity against dormant stage Mycobacterium tuberculosis H37Ra at 30 ug/ml measured after 12 days by XTT assay; details: 288 h
[16] = tested on: Pseudomonas aeruginosa; experiment: Antibacterial activity against Pseudomonas aeruginosa NCIM 2036 measured after 8 hrs by spectrophotometric method; details: NCIM 2036, 8 h
[17] = tested on: Escherichia coli; experiment: Antibacterial activity against Escherichia coli NCIM 2688 at 30 ug/ml measured after 8 hrs by spectrophotometric method; details: NCIM 2688, 8 h
[18] = tested on: Staphylococcus aureus; experiment: Antibacterial activity against Staphylococcus aureus NCIM 2079 at 10 ug/ml measured after 12 hrs by spectrophotometric method; details: NCIM 2079, 12 h
[19] = tested on: Bacillus subtilis; experiment: Antibacterial activity against Bacillus subtilis NCIM 2010 at 30 ug/ml measured after 12 hrs by spectrophotometric method; details: NCIM 2010, 12 h
[20] = tested on: Escherichia coli; experiment: Antibacterial activity against Escherichia coli NCIM 2688 at 10 ug/ml measured after 8 hrs by spectrophotometric method; details: NCIM 2688, 8 h
[21] = tested on: Mycobacterium tuberculosis; experiment: Antitubercular activity against dormant stage Mycobacterium tuberculosis H37Ra measured after 12 days by XTT assay; details: 288 h

CC(=O)OCC(=O)NC[C@H]1CN(c2ccc(N3CC4(COC4)C3)c(F)c2)C(=O)O1
IC50 [1]: > 100 µg/mL
MIC [1]: > 100 µg/mL
IC50 [2]: 3.24 µg/mL (≈ 7.95 µM)
MIC [2]: 7.8 µg/mL (≈ 19.1 µM)
inhibition at 3 µg/mL [3]: 43.6%
inhibition at 3 µg/mL [4]: 49.4%
inhibition at 10 µg/mL [5]: 42.8%
IC50 [6]: > 100 µg/mL
MIC [6]: > 100 µg/mL
inhibition at 3 µg/mL [7]: 22.8%
IC50 [8]: 0.75 µg/mL (≈ 1.84 µM)
MIC [8]: 8.4 µg/mL (≈ 20.6 µM)
inhibition at 30 µg/mL [9]: 98.2%
inhibition at 30 µg/mL [10]: 58.3%
inhibition at 10 µg/mL [11]: 73.6%
inhibition at 10 µg/mL [12]: 4.03%
inhibition at 3 µg/mL [13]: -16.6%
inhibition at 3 µg/mL [14]: 82.5%
inhibition at 30 µg/mL [15]: 88.9%
IC50 [16]: > 100 µg/mL
MIC [16]: > 100 µg/mL
inhibition at 30 µg/mL [17]: 89.1%
inhibition at 10 µg/mL [18]: 93.9%
inhibition at 30 µg/mL [19]: 99.3%
inhibition at 10 µg/mL [20]: 63.9%
IC50 [21]: 6.69 µg/mL (≈ 16.4 µM)
MIC [21]: 10.6 µg/mL (≈ 26.1 µM)
